Results published in patent US9102674B2, “Substituted naphthyridine and quinoline compounds as MAO inhibitors” (DART NEUROSCIENCE (CAYMAN) LTD., priority 2013, dated 2015).

Each molecule was assayed against T1, Human recombinant MAO-B (Homo sapiens, UniProt P27338) (assay: MAO-B enzymatic assay (fluorometric, kynuramine)). Conditions: human recombinant MAO-B expressed in insect cells; kynuramine substrate; values given as bins; read-out: MAO-B (pEC50) (converted).
T1 construct: host or cells: insect cells
T1 sequence (P27338 1-520): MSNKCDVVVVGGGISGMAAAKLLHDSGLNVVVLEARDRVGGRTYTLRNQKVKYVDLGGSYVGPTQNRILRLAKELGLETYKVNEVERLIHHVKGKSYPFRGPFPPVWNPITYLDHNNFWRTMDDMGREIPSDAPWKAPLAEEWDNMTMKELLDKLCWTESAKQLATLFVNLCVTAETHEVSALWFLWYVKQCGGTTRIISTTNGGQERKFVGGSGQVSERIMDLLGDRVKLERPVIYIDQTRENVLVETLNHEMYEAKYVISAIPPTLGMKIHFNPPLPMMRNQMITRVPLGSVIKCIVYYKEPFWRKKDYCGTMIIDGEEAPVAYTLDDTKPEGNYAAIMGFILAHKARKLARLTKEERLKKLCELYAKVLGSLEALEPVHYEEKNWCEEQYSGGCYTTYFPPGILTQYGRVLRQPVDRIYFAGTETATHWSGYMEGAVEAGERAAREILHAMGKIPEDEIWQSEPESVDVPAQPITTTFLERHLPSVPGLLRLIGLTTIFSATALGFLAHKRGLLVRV
Assay type: biochemical
Method: The MAO enzymatic assay was performed according to the fluorometric method described by Matsumoto and colleagues (Matsumoto et al., Clin. Biochem. 1985, 18, 126-129) with the following modifications. Human recombinant MAO-A and MAO-B expressed in insect cells were used. For both assays, test compound and/or vehicle were preincubated with purified enzyme in phosphate buffer pH 7.4 for 15 minutes at 37° C. The reaction was initiated by addition of […] kynuramine. Following a 60 minute incubation period, the reaction was terminated by the addition of 6 N NaOH. The amount of 4-hydroxyquinoline that formed was determined by spectrofluorimetrically at 325 nm/465 nm.
Results were converted to percent inhibition, and the EC50 (M) for each reaction was determined using the XLfit program from IDBS (ID Business Solutions Ltd., 2 Occam Court, Surrey Research Park, Guildford, Surrey, GU2 7QB UK). The EC50 represents the concentration of a compound where 50% of its maximal effect is observed. The pEC50 is defined as the negative logarithm of the EC50; a higher pEC50 value therefore corresponds to higher potency in the assay.
Representative compounds of the invention were evaluated in the MAO-B enzymatic assay. Typically, the compounds of the invention show MAO-B inhibitory properties at a concentration of 0.1 to 10 μM, typically at 5-100%.
As depicted in the following Table, these inhibitory properties were mirrored by pEC50 values ranging from 5 (meaning 10^−5 M or 10 μM) to greater than 7 (meaning less than 10^−7 M or 0.1 μM).

Compound | EC50 [nM]
C[C@@H](O)c1cnc2cc(OCc3ccc(F)cc3)ccc2c1 [Example 44, (R)-1-(7-((4-Fluorobenzyl)oxy)quinolin-3-yl)ethanol] | < 100
CC(C)(O)c1cnc2cc(OCc3ccc(F)c(F)c3)cnc2c1 [Example 77, 2-{7-[(3,4-Difluorophenyl)methoxy]-1,5-naphthyridin-3-yl}propan-2-ol] | < 100
CCOC(=O)c1cc2ccc(OCc3ccc(F)c(Cl)c3)cc2nc1C [Example 23, Ethyl 7-((3-chloro-4-fluorobenzyl)oxy)-2-methylquinoline-3-carboxylate] | < 100
CCOC(=O)c1cnc2cc(OCc3cccc(Cl)c3)ccc2c1 [Example 3, Ethyl 7-[(3-chlorophenyl)methoxy]quinoline-3-carboxylate] | < 100
CNC(=O)c1cnc2cc(OCc3cccc(Cl)c3)cnc2c1 [Example 72, 7-[(3-Chlorophenyl)methoxy]-N-methyl-1,5-naphthyridine-3-carboxamide] | < 100
OCc1cnc2cc(OCc3cc(F)cc(F)c3)ccc2c1 [Example 36, (7-((3,5-Difluorobenzyl)oxy)quinolin-3-yl)methanol] | < 100
CCOC(=O)c1cc2ccc(OCc3ccc(F)cc3)cc2nc1C [Example 22, Ethyl 7-((4-fluorobenzyl)oxy)-2-methylquinoline-3-carboxylate] | < 100
CCOC(=O)c1cc2ccc(OCc3cccc(Cl)c3)cc2nc1C [Example 20, Ethyl 7-((3-chlorobenzyl)oxy)-2-methylquinoline-3-carboxylate] | < 100
CC(C)(O)c1cnc2cc(OCCc3cccc(F)c3)ccc2c1 [Example 38, 2-(7-(3-Fluorophenethoxy)quinolin-3-yl)propan-2-ol] | 100 to 1000
CCOC(=O)c1cnc2cc(OCc3cccc(C)c3)ccc2c1 [Example 7, Ethyl 7-((3-methylbenzyl)oxy)quinoline-3-carboxylate] | < 100
CCOC(=O)c1cnc2cc(OCc3ccc(F)cc3)ccc2c1 [Example 2, Ethyl 7-[(4-fluorophenyl)methoxy]quinoline-3-carboxylate] | < 100
CCOC(=O)c1cnc2cc(OCc3ccc(F)c(Cl)c3)ccc2c1 [Example 17, Ethyl 7-((3-chloro-4-fluorobenzyl)oxy)quinoline-3-carboxylate] | < 100

Further lines, results first:

EC50 [nM] | Compound
< 100 | OCCc1cnc2cc(OCc3cccc(Cl)c3)ccc2c1 [Example 56, 2-(7-((3-Chlorobenzyl)oxy)quinolin-3-yl)ethanol]
< 100 | OCc1cnc2cc(OCc3cccc(Cl)c3)ccc2c1 [Example 35, (7-((3-Chlorobenzyl)oxy)quinolin-3-yl)methanol]
< 100 | COCc1cnc2cc(OCc3cccc(Cl)c3)ccc2c1 [Example 40, 7-((3-Chlorobenzyl)oxy)-3-(methoxymethyl)quinoline]
100 to 1000 | CC(C)(O)c1cnc2cc(OCCc3cccc(Cl)c3)ccc2c1 [Example 39, 2-(7-(3-Chlorophenethoxy)quinolin-3-yl)propan-2-ol]
1000 to 10000 | CC(C)(O)Cc1cnc2cc(OCc3cccc(Cl)c3)ccc2c1 [Example 63, 1-(7-((3-Chlorobenzyl)oxy)quinolin-3-yl)-2-methylpropan-2-ol]
< 100 | NC(=O)c1cnc2cc(OCc3cccc(Cl)c3)ccc2c1 [Example 64, 7-((3-Chlorobenzyl)oxy)quinoline-3-carboxamide]
< 100 | COC(=O)Cc1cnc2cc(OCc3cccc(Cl)c3)ccc2c1 [Example 54, Methyl 2-(7-((3-chlorobenzyl)oxy)quinolin-3-yl)acetate]
